The target of one assay is human Gal-1 (hGal-1) (Homo sapiens, UniProt P09382). Nature of the assay: Competitive binding assay: biotinylated hGal-1 binding to microplate-adsorbed asialofetuin (ASF), spectrophotometric. To be noted: hGal-1 binding to asialofetuin; Table 15; R and S epimers of selected Examples also listed; read-out: IC50 (Galectin-1 inhibition). The essentials:
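Biotinylated hGal-1 (300-1000 ng/mL) incubated with compound on asialofetuin-coated plates 3 hours at 4 °C, washed, then streptavidin-peroxidase (80 ng/mL) 1 hour at 4 °C. ABTS substrate read spectrophotometrically; IC50 reported as mean of several measurements.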

Assay [1] addresses biotinylated human Gal-3 (hGal-3) (Homo sapiens, UniProt P17931). Nature of the assay: Competitive binding assay: biotinylated hGal-3 binding to microplate-adsorbed asialofetuin (ASF), spectrophotometric. The gist of the method: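 Competitive binding of biotinylated hGal-3 to plate-adsorbed asialofetuin was measured with serially diluted compounds over 3 h at 4° C. Bound protein was detected with streptavidin-peroxidase and ABTS substrate by absorbance. IC50 values are means of several measurements.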

Setting [2] is: Gal-3 inhibition, Table 5, read-out: IC50.
Where [3] appears, read: Gal-3 inhibition, Table 4, read-out: IC50.
Where [4] appears, read: Table 12, hGal-3, read-out: IC50 (Gal-3 inhibition).

Where two headings read alike, the source gives them in different places.

biotinylated human Gal-3 (hGal-3), sequence (P17931 whole entry): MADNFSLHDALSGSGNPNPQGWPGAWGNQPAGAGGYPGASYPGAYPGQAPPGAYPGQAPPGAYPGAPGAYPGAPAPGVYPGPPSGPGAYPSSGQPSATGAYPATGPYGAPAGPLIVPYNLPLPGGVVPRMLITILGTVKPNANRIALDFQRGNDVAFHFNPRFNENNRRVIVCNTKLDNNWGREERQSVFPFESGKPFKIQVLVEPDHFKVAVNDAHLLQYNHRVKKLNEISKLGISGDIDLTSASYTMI
human Gal-1 (hGal-1), sequence (P09382 whole entry): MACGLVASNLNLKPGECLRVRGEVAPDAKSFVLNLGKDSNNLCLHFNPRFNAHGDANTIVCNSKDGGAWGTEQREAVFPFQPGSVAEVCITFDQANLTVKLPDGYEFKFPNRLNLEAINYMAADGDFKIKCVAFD

Consider `CN(CC1CC1)C(=O)C(S[C@@H]1O[C@H](CO)[C@H](O)[C@H](n2cc(-c3cc(F)c(F)c(F)c3)nn2)[C@H]1O)C1(O)CCC(F)(F)CC1` (stereo partly drawn) [Example 2.44.218., N-(Cyclopropylmethyl)-2-(4,4-difluoro-1-hydroxycyclohexyl)-2-(((2S,3R,4S,5R,6R)-3,5-dihydroxy-6-(hydroxymethyl)-4-(4-(3,4,5-trifluorophenyl)-1H-1,2,3-triazol-1-yl)tetrahydro-2H-pyran-2-yl)thio)-N-methylacetamide], for which the IC50 was found to be 30 nM on human Gal-1 (hGal-1) and 20 nM in assay [1] (setting [2]).
As to `CN(CC1CC1)C(=O)C(S[C@@H]1O[C@H](CO)[C@H](O)[C@H](n2cc(-c3cc(F)c(F)c(F)c3)nn2)[C@H]1O)C1(O)CCOCC1` (stereo partly drawn) [Example 2.41.218., N-(Cyclopropylmethyl)-2-(((2S,3R,4S,5R,6R)-3,5-dihydroxy-6-(hydroxymethyl)-4-(4-(3,4,5-trifluorophenyl)-1H-1,2,3-triazol-1-yl)tetrahydro-2H-pyran-2-yl)thio)-2-(4-hydroxytetrahydro-2H-pyran-4-yl)-N-methylacetamide], the figures for the IC50 (at human Gal-1 (hGal-1); in assay [1] (setting [3])) were 190 nM and 800 nM, respectively.
Take `CN(Cc1ccccc1)C(=O)C(S[C@@H]1O[C@H](CO)[C@H](O)[C@H](n2cc(-c3cc(F)c(F)c(F)c3)nn2)[C@H]1O)C(C)(C)O` (stereo partly drawn) [Example 2.31.207., N-Benzyl-2-(((2S,3R,4S,5R,6R)-3,5-dihydroxy-6-(hydroxymethyl)-4-(4-(3,4,5-trifluorophenyl)-1H-1,2,3-triazol-1-yl)tetrahydro-2H-pyran-2-yl)thio)-3-hydroxy-N,3-dimethylbutanamide]: the IC50 at human Gal-1 (hGal-1) came to 570 nM; in assay [1] (Table 6, hGal-3, read-out: IC50 (Gal-3 inhibition)), 60 nM.
Turning to `Cn1ccc(C(O)C(S[C@@H]2O[C@H](CO)[C@H](O)[C@H](n3cc(-c4cc(F)c(F)c(F)c4)nn3)[C@H]2O)C(=O)N2CCC2)n1` (stereo partly drawn) [Example 2.65.206., 1-(Azetidin-1-yl)-2-(((2S,3R,4S,5R,6R)-3,5-dihydroxy-6-(hydroxymethyl)-4-(4-(3,4,5-trifluorophenyl)-1H-1,2,3-triazol-1-yl)tetrahydro-2H-pyran-2-yl)thio)-3-hydroxy-3-(1-methyl-1H-pyrazol-3-yl)propan-1-one], the half-maximal inhibitory concentration (IC50) came to 7290 nM at human Gal-1 (hGal-1) and 1040 nM in assay [1] (Gal-3 inhibition, Table 7, read-out: IC50).
Take `CN(Cc1cccs1)C(=O)C(S[C@@H]1O[C@H](CO)[C@H](O)[C@H](n2cc(-c3cc(F)c(F)c(F)c3)nn2)[C@H]1O)C1(O)CCOCC1` (stereo partly drawn) [Example 2.41.210., 2-(((2S,3R,4S,5R,6R)-3,5-dihydroxy-6-(hydroxymethyl)-4-(4-(3,4,5-trifluorophenyl)-1H-1,2,3-triazol-1-yl)tetrahydro-2H-pyran-2-yl)thio)-2-(4-hydroxytetrahydro-2H-pyran-4-yl)-N-methyl-N-(thiophen-2-ylmethyl)acetamide]: the figures for the IC50 (at human Gal-1 (hGal-1); in assay [1] (setting [3])) were 1120 nM and 440 nM, respectively.
Regarding `CN(CC1(F)CCCC1)C(=O)[C@@H](S[C@@H]1O[C@H](CO)[C@H](O)[C@H](n2cc(-c3cc(F)c(F)c(F)c3)nn2)[C@H]1O)C1(O)CCC(F)(F)CC1` [Example 2.44.223S., (S)-2-(4,4-Difluoro-1-hydroxycyclohexyl)-2-(((2S,3R,4S,5R,6R)-3,5-dihydroxy-6-(hydroxymethyl)-4-(4-(3,4,5-trifluorophenyl)-1H-1,2,3-triazol-1-yl)tetrahydro-2H-pyran-2-yl)thio)-N-((1-fluorocyclopentyl)methyl)-N-methylacetamide], the IC50 on human Gal-1 (hGal-1) is 80 nM; in assay [1] (setting [2]), 70 nM.
Turning to `CO[C@@H]1[C@@H](n2cc(-c3cc(F)c(F)c(F)c3)nn2)[C@@H](O)[C@@H](CO)O[C@H]1S[C@H](C(=O)N(C)CC(C)(C)F)C1(O)CCC(F)(F)CC1` [Example 2.44.222S.I., (S)-2-(4,4-Difluoro-1-hydroxycyclohexyl)-N-(2-fluoro-2-methylpropyl)-2-(((2S,3R,4S,5R,6R)-5-hydroxy-6-(hydroxymethyl)-3-methoxy-4-(4-(3,4,5-trifluorophenyl)-1H-1,2,3-triazol-1-yl)tetrahydro-2H-pyran-2-yl)thio)-N-methylacetamide], the results for the IC50 (on human Gal-1 (hGal-1); in assay [1] (setting [4])) were 70 nM and 10 nM, respectively.
Regarding `CN(CCC(C)(C)C)C(=O)C(S[C@@H]1O[C@H](CO)[C@H](O)[C@H](n2cc(-c3cc(F)c(F)c(F)c3)nn2)[C@H]1O)C1(O)CCC(F)(F)CC1` (stereo partly drawn) [Example 2.44.225., 2-(4,4-Difluoro-1-hydroxycyclohexyl)-2-(((2S,3R,4S,5R,6R)-3,5-dihydroxy-6-(hydroxymethyl)-4-(4-(3,4,5-trifluorophenyl)-1H-1,2,3-triazol-1-yl)tetrahydro-2H-pyran-2-yl)thio)-N-(3,3-dimethylbutyl)-N-methylacetamide], the results for the IC50 (at human Gal-1 (hGal-1); in assay [1] (setting [2])) were 150 nM and 70 nM, respectively.
As to `CCN(C)C(=O)[C@@H](S[C@@H]1O[C@H](CO)[C@H](O)[C@H](n2cc(-c3cc(F)c(F)c(F)c3)nn2)[C@H]1OC)C1(O)CCN(C(=O)NC2CC2)CC1` [Example 2.49.226S.I., N-Cyclopropyl-4-((S)-2-(ethyl(methyl)amino)-1-(((2S,3R,4S,5R,6R)-5-hydroxy-6-(hydroxymethyl)-3-methoxy-4-(4-(3,4,5-trifluorophenyl)-1H-1,2,3-triazol-1-yl)tetrahydro-2H-pyran-2-yl)thio)-2-oxoethyl)-4-hydroxypiperidine-1-carboxamide], the IC50 at human Gal-1 (hGal-1) was 1700 nM; in assay [1] (Table 8, hGal-3, read-out: IC50 (Gal-3 inhibition)), 60 nM.
Regarding `CCO[C@@H]1[C@@H](n2cc(-c3cc(F)c(F)c(F)c3)nn2)[C@@H](O)[C@@H](CO)O[C@H]1SC(C(=O)N1CCC(F)(F)CC1)C1(O)CCC(F)(F)CC1` (stereo partly drawn) [Example 2.44.226.II., 2-(4,4-Difluoro-1-hydroxycyclohexyl)-1-(4,4-difluoropiperidin-1-yl)-2-(((2S,3R,4S,5R,6R)-3-ethoxy-5-hydroxy-6-(hydroxymethyl)-4-(4-(3,4,5-trifluorophenyl)-1H-1,2,3-triazol-1-yl)tetrahydro-2H-pyran-2-yl)thio)ethan-1-one], the IC50 on human Gal-1 (hGal-1) came out at 100 nM; in assay [1] (Gal-3 inhibition, Table 14, read-out: IC50), 100 nM.
For `CN(CC1CC1)C(=O)[C@H](S[C@@H]1O[C@H](CO)[C@H](O)[C@H](n2cc(-c3cc(F)c(F)c(F)c3)nn2)[C@H]1O)C1(O)CCC(F)(F)CC1` [Example 2.44.218R., (R)-N-(Cyclopropylmethyl)-2-(4,4-difluoro-1-hydroxycyclohexyl)-2-(((2S,3R,4S,5R,6R)-3,5-dihydroxy-6-(hydroxymethyl)-4-(4-(3,4,5-trifluorophenyl)-1H-1,2,3-triazol-1-yl)tetrahydro-2H-pyran-2-yl)thio)-N-methylacetamide], the IC50 on human Gal-1 (hGal-1) is 1900 nM; in assay [1] (setting [2]) it was 1150 nM.
`CO[C@@H]1[C@@H](n2cc(-c3cc(F)c(F)c(F)c3)nn2)[C@@H](O)[C@@H](CO)O[C@H]1S[C@@H](C(=O)N(C)CC(C)(C)F)C1(O)CCC(F)(F)CC1` [Example 2.44.222R.I., (R)-2-(4,4-Difluoro-1-hydroxycyclohexyl)-N-(2-fluoro-2-methylpropyl)-2-(((2S,3R,4S,5R,6R)-5-hydroxy-6-(hydroxymethyl)-3-methoxy-4-(4-(3,4,5-trifluorophenyl)-1H-1,2,3-triazol-1-yl)tetrahydro-2H-pyran-2-yl)thio)-N-methylacetamide]: the results for the IC50 (at human Gal-1 (hGal-1); in assay [1] (setting [4])) were 8780 nM and 7900 nM, respectively.
Take `CN(CCC1CCOCC1)C(=O)C(S[C@@H]1O[C@H](CO)[C@H](O)[C@H](n2cc(-c3cc(F)c(F)c(F)c3)nn2)[C@H]1O)C1(O)CCOCC1` (stereo partly drawn) [Example 2.41.216., 2-(((2S,3R,4S,5R,6R)-3,5-Dihydroxy-6-(hydroxymethyl)-4-(4-(3,4,5-trifluorophenyl)-1H-1,2,3-triazol-1-yl)tetrahydro-2H-pyran-2-yl)thio)-2-(4-hydroxytetrahydro-2H-pyran-4-yl)-N-methyl-N-(2-(tetrahydro-2H-pyran-4-yl)ethyl)acetamide]: the IC50 came out at 380 nM at human Gal-1 (hGal-1) and 60 nM in assay [1] (setting [3]).
On to `O=C([C@H](S[C@@H]1O[C@H](CO)[C@H](O)[C@H](n2cc(-c3cc(F)c(F)c(F)c3)nn2)[C@H]1O)C1(O)CCC(F)(F)CC1)N1CC(F)(F)C1` [Example 2.44.227R., (R)-2-(4,4-Difluoro-1-hydroxycyclohexyl)-1-(3,3-difluoroazetidin-1-yl)-2-(((2S,3R,4S,5R,6R)-3,5-dihydroxy-6-(hydroxymethyl)-4-(4-(3,4,5-trifluorophenyl)-1H-1,2,3-triazol-1-yl)tetrahydro-2H-pyran-2-yl)thio)ethan-1-one], for which the results for the IC50 (at human Gal-1 (hGal-1); in assay [1] (setting [2])) were 5130 nM and 1050 nM, respectively.
As to `CO[C@@H]1[C@@H](n2cc(-c3cc(F)c(F)c(F)c3)nn2)[C@@H](O)[C@@H](CO)O[C@H]1SC(C(=O)N(C)CCC(C)(C)C)C1(O)CCC(F)(F)CC1` (stereo partly drawn) [Example 2.44.225.I., 2-(4,4-Difluoro-1-hydroxycyclohexyl)-N-(3,3-dimethylbutyl)-2-(((2S,3R,4S,5R,6R)-5-hydroxy-6-(hydroxymethyl)-3-methoxy-4-(4-(3,4,5-trifluorophenyl)-1H-1,2,3-triazol-1-yl)tetrahydro-2H-pyran-2-yl)thio)-N-methylacetamide], the IC50 was found to be 120 nM at human Gal-1 (hGal-1) and 100 nM in assay [1] (setting [4]).
On to `CC1CN(C(=O)[C@@H](S[C@@H]2O[C@H](CO)[C@H](O)[C@H](n3cc(-c4cc(F)c(F)c(F)c4)nn3)[C@H]2O)C2(O)CCOCC2)C1` [Example 2.41.205S., (S)-2-(((2S,3R,4S,5R,6R)-3,5-Dihydroxy-6-(hydroxymethyl)-4-(4-(3,4,5-trifluorophenyl)-1H-1,2,3-triazol-1-yl)tetrahydro-2H-pyran-2-yl)thio)-2-(4-hydroxytetrahydro-2H-pyran-4-yl)-1-(3-methylazetidin-1-yl)ethan-1-one], for which the results for the IC50 (on human Gal-1 (hGal-1); in assay [1] (setting [3])) were 550 nM and 120 nM, respectively.

The values above are taken from US12410208B2, “(2-acetamidyl)thio-beta-D-galactopyranoside derivatives” (Idorsia Pharmaceuticals Ltd, priority 2020, dated 2025).
